US20120329860A1, “Uses of Beta-Nicotinamide Adenine Dinucleotide” (MEDICAL COLLEGE OF GEORGIA INSTITUTE, INC, priority 2010, published 2012)

Tests used:
PKA = PKA inhibitor test in ECIS/TER assay (HPAEC); format: cell-based, human; settings: H-89 pretreatment 30 min, then 50 μM β-NAD
Text: (§1) The barrier properties of endothelial cells monolayers were characterized using a highly sensitive electrical cell-substrate impedance sensing (ECIS) instrument to measure transendothelial electrical resistance (TER) as described (Birukova et al., 2004a. Microvasc Res 67(1):64-77; Kolosova et al., 2005, Circ Res 97(2):115-124). The TER data was normalized to the initial voltage.
To elucidate the signaling pathways involved in β-NAD-induced HPAEC TER increase, the cAMP-activated protein kinase A (PKA) and the nucleotide exchange protein directly activated by cAMP (EPAC) pathways were examined. Since activation of P2Y11 receptors may lead to the Gas-mediated pathway including direct stimulation of adenylate cyclase, elevation of cAMP levels and cAMP-dependent activation of PKA, a simple inhibitory test was performed to confirm an activation of PKA and its participation in β-NAD-induced HPAEC barrier enhancement. For this test, H-89, an inhibitor of PKA activity, was used in ECIS experiments. HPAEC were pre-treated with H-89 for 30 min and then challenged with β-NAD and the effect of β-NAD-mediated barrier enhancement was determined using TER measurement.

P2Y1 receptor = target: T1, P2Y1 receptor (Homo sapiens, UniProt P47900); experiment: P2Y1 receptor antagonist study (TER, HPAEC); format: cell-based; set-up: dose or concentration left out as unconfirmed; settings: MRS2279 pretreatment 30 min, then b-NAD
T1 construct: To deplete the mRNA content of endogenous P2Y1, P2Y11 or EPAC1; endogenous in cells; host or cells: HPAEC (human pulmonary artery endothelial cells)
T1 sequence (P47900 whole entry): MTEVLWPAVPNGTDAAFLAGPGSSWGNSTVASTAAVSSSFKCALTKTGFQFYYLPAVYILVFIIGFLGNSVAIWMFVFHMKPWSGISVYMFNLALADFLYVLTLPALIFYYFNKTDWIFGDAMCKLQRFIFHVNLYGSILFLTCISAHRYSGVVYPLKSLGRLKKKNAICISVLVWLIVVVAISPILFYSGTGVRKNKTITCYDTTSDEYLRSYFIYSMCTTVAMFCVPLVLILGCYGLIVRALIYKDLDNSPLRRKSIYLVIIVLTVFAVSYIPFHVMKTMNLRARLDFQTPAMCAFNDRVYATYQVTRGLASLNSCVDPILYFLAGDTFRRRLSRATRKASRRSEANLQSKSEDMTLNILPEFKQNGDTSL
Procedure: as §1
(§2) HPAEC were pretreated with receptor-specific antagonists, MRS2279 or NF157, for 30 min, and then challenged with […] b-NAD. TER was registered throughout to examine the barrier enhancement induced by b-NAD in the presence or absence of the antagonists.

P2Y11 receptor = target: T2, P2Y11 receptor (Homo sapiens, UniProt Q96G91); experiment: P2Y11 receptor antagonist study (TER, HPAEC); format: cell-based; settings: 1 mM NF157 pretreatment 30 min, then b-NAD
T2 construct: To deplete the mRNA content of endogenous P2Y1, P2Y11 or EPAC1; endogenous in cells; host or cells: HPAEC (human pulmonary artery endothelial cells)
T2 sequence (Q96G91 1-374): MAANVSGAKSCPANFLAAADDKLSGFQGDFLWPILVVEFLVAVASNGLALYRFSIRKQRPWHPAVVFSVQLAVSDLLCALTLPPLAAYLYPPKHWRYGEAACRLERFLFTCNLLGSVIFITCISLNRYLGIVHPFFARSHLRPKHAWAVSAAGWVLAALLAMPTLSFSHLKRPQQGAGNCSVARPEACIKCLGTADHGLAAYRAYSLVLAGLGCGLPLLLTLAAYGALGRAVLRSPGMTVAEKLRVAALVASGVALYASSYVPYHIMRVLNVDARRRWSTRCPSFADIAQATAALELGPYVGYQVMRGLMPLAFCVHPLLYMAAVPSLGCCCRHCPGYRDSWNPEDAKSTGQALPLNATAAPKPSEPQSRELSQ
Procedure: as §1, §2

HPAEC monolayers = experiment: Transendothelial electrical resistance (TER) by ECIS in HPAEC monolayers; format: cell-based, human; settings: for TER of HPAEC monolayers after cytoskeleton-disrupting agent: agent alone, pretreatment 30 min
Procedure: Human pulmonary artery endothial cells (HPAEC) and EBM-2 complete medium were purchased from Lonza (Allendale, N.J.). HPAEC were cultured according to the manufacturer's protocol and utilized at early (3-6) passages.
as §1

LPS-induced ALI in mice = experiment: Evans Blue Dye-albumin (EBD) lung permeability; format: in vivo; settings: LPS alone treated mice; vehicle 4.57
Procedure: Mice were anesthetized with ketamine (150 mg/kg) and acetylpromazine (15 mg/kg) intraperitoneally (i.p.) before the exposure of the trachea via neck incision and intubation with 20-guage catheter and the right internal jugular vein was exposed via right chest incision for PBS or b-NAD installation. The mice were randomly divided into groups. LPS or sterile saline was instilled intratracheally (i.t.) via a 20-gauge catheter. Simultaneously, mice received either b-NAD (5.4 mg/kg, equivalent to final calculated plasma concentration […] or PBS in the control group intravenously (i.v.) through the internal jugular vein (IJ). The animals were allowed to recover for 18 hr. EBD was given through the IJ 2 hr prior to termination of the experiment. At termination, bronchoalveolar lavage (BAL) was collected. BAL was 1ml of 10% HBSS through the endotracheal catheter immediately on sacrifice with aspiration. BAL was immediately centrifuged and processed. After the BAL, ethylenediaminetetraacetic acid (EDTA) was used to flush the lungs of blood via the right heart ventricle and the lungs were then harvested. BAL and lungs were collected and stored at −70° C. for evaluation of lung injury.
Measurement of EBD concentration in the lungs was performed by injection of EBD (20 mg/kg) into the right internal jugular vein 2 hr before the termination of the experiment to assess the vascular leak. Lungs free of blood were weighed and snap frozen in liquid nitrogen. The left lung was weighed and homogenized, then incubated with two volumes of formamide (18 hr, 60° C.) and centrifuged (5000 g, 30 min, 20° C.). The extravasated EBD concentration (mg/g, lung) in the lung homogenate was calculated against a standard curve. In a separate experiment the EBD was injected into the right internal jugular vein as described above at 2 hrs prior to termination of the experiment and the left lung gross anatomy view was photographed with a Leica NCL150 Camera.

[1] = tested on: LPS-induced mortality in mice; experiment: LPS-induced mortality / survival; format: in vivo; settings: LPS alone, within four days
Procedure: Mice were injected with β-NAD (100 mg/kg, i.p) or vehicle (saline, i.p) 10 min after LPS (20 mg/kg, i.p) challenge. As a treatment strategy, β-NAD was given twice a day (i.p) for 4 days. […]

In the case of O=S(=O)(NCCNC/C=C/c1ccc(Br)cc1)c1cccc2cnccc12 [H-89], the “effect of PKA inhibitor on β-NAD-induced TER increase” value (PKA) was “attenuated the β-NAD-induced HPAEC TER increase”.
CNc1nc(Cl)nc2c1ncn2[C@H]1C[C@@H](OP(=O)(O)O)[C@]2(COP(=O)(O)O)C[C@H]12 [MRS2279] was tested, and the “effect of P2Y1 antagonist on β-NAD-induced TER increase” value (P2Y1 receptor) was “attenuated the β-NAD-induced TER increase”.
In the case of O=C(Nc1cccc(C(=O)Nc2cc(C(=O)Nc3ccc(S(=O)(=O)O)c4cc(S(=O)(=O)O)cc(S(=O)(=O)O)c34)ccc2F)c1)Nc1cccc(C(=O)Nc2cc(C(=O)Nc3ccc(S(=O)(=O)O)c4cc(S(=O)(=O)O)cc(S(=O)(=O)O)c34)ccc2F)c1 [NF157], the “effect of P2Y11 antagonist on β-NAD-induced TER increase” value (P2Y11 receptor) was “attenuated the β-NAD-induced TER increase more significantly”.
With C=C1[C@@H](C)[C@H]2[C@H](Cc3ccccc3)NC(=O)[C@]23OC(=O)/C=C/[C@H](O)CCC[C@@H](C)C/C=C/[C@H]3[C@@H]1O [cytochalasin B, reference compound] the “TER of HPAEC monolayers after cytoskeleton-disrupting agent” value (HPAEC monolayers) was “produced a prompt attenuation in TER”.
COC(=O)Nc1nc2ccc(C(=O)c3cccs3)cc2[nH]1 [nocodazole, reference compound] was tested, and the “TER of HPAEC monolayers after cytoskeleton-disrupting agent” value (HPAEC monolayers) was “compromises endothelial cell barrier integrity”.
“lipopolysaccharide [LPS, reference compound]” was tested, and the “EBD-albumin in lung (average)” value (LPS-induced ALI in mice) was 16.81 µg/g, the “decrease in TER from the baseline” value (HPAEC monolayers; LPS (100 ng/ml) alone) was about 60% and the mortality [1] was 100%.
pneumolysin [PLY, reference compound] was tested, and the “decrease in TER from the baseline” value (HPAEC monolayers; PLY alone (125 ng/ml)) was about 80%.
